Measured values from PMC12125102, “The “specific” P-glycoprotein inhibitor zosuquidar (LY335979) also weakly inhibits human organic cation transporters” (Naunyn-Schmiedeberg's Archives of Pharmacology, 2024).

Target: T1, OCT1 (organic cation transporter 1) (Homo sapiens, UniProt O15245)
T1 construct: gene SLC22A1
T1 sequence (O15245 1-554): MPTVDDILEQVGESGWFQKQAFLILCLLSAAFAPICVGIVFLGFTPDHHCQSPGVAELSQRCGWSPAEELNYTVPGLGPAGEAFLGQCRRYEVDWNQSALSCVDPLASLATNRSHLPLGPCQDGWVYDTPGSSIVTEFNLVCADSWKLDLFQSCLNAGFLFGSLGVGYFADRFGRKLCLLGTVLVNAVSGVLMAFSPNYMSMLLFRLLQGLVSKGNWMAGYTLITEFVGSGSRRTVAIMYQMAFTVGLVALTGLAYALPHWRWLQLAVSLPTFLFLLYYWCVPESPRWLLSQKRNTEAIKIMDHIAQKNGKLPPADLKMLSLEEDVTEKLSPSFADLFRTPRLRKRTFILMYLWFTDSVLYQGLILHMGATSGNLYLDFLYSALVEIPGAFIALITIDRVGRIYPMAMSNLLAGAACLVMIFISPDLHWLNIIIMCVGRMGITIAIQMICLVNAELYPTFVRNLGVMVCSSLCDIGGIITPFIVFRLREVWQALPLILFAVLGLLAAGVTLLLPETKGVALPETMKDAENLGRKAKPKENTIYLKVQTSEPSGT
Assay: inhibition of metformin uptake in HEK293-Flp-In-OCT1 cells, […] min pre-incubation, UPLC-MS/MS
Type: cell-based

O[C@@H](COc1cccc2ncccc12)CN1CCN([C@@H]2c3ccccc3[C@@H]3[C@H](c4ccccc42)C3(F)F)CC1 [zosuquidar]
IC50: 7.5 ± 3.7 µM
